Earlier results, collected in PMC6173406, “Design and evaluation of selective butyrylcholinesterase inhibitors based on Cinchona alkaloid scaffold” (PLoS ONE, 2018).

Target: T1, human BChE (Homo sapiens, UniProt P06276)
T1 construct: gift of Dr. F. Nachon (Département de Toxicologie, Armed Forces Biomedical Research Institute, France)
Settings: cited from earlier work

T1 sequence (P06276 29-602): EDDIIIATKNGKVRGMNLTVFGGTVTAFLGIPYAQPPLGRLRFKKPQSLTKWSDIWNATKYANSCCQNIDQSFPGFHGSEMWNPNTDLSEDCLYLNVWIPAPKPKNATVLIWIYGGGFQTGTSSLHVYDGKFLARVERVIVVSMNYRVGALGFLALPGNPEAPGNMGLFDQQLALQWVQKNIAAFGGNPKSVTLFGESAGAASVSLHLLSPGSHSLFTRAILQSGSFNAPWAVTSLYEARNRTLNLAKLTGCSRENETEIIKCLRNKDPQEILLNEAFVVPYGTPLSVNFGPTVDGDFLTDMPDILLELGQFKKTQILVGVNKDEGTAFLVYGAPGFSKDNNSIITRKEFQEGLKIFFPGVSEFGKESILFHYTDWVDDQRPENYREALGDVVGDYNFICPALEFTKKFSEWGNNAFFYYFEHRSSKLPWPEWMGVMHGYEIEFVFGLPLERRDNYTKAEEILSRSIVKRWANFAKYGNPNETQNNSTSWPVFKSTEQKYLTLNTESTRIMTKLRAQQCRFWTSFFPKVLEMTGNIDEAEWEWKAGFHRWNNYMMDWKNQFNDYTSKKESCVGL

Compound: CCN(CC)C(C)CN1c2ccccc2Sc2ccccc21 (centres unmarked) [Ethopropazine]
- BChE Ks: 0.69 ± 0.14 mM
- Ki (read-out: BChE Ki): 160 ± 30 nM
